Reference: patent US20250115577A1, “BCL-2 Inhibitors” (Eil Therapeutics, Inc., priority 2021, published 2025)

Key:
BCL-2 = BCL-2 (Homo sapiens (Human), UniProt P10415); assay: BCL-2 TR-FRET Assay (primary PPI inhibition); format: binding; conditions: 60 min incubation, read-out: BCL2 IC50
Procedure, shortened: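 His-tagged BCL-2 (3 ng) with anti-His Tb donor, dye-labeled acceptor and BCL-2 peptide ligand; compound added at 200× stock, final DMSO 0.5%. 60 min incubation, then TR-FRET read at 340 nm excitation, 620/665 nm emission, 60 µs delay, 500 µs integration.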

BCL-xL = BCL-xL (Homo sapiens (Human), UniProt Q07817); assay: BCL-xL TR-FRET Assay (primary PPI inhibition); format: binding; conditions: 60 min incubation, read-out: BCLxL IC50
Chain of BCL-xL (Q07817 whole entry): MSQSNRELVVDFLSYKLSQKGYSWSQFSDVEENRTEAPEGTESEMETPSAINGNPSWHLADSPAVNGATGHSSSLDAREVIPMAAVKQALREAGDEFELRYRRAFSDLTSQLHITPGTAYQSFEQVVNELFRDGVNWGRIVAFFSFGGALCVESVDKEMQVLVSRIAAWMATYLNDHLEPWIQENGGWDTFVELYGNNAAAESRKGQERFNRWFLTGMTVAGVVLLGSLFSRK
Procedure, shortened: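 TR-FRET competition of His-tagged BCL-xL (10.5 ng) binding to dye-labeled peptide ligand, with anti-His Tb donor; compound added from 200× stock, 0.5% DMSO final. After 60 min incubation, read at 340 nm excitation, 620/665 nm emission, 60 µs delay, 500 µs integration.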

BCL-2 [G101V] = BCL-2 [G101V] (Homo sapiens (Human), UniProt P10415, G101V); assay: BCL-2 [G101V] TR-FRET Assay (primary PPI inhibition); format: binding; conditions: 60 min incubation, read-out: BCL2[G101V] IC50
Method: Example C. BCL-2 [G101V]TR-FRET Assay
The following assay concentrations and times were used: 0.22 ng/μl of BCL-2 (SinoBiological, #10195-H08E1), 5 μL of 1:100 anti-His Tb-labeled donor, 5 μL of 1:100 Dye-labeled acceptor, 5 μL of 1:40 BCL-2 Peptide Ligand (BPS Bioscience, #50223), and 2 μL of 200× test compound, with 60 min incubation time (final concentration of DMSO 0.5%). The results of the assay were read using a plate reader with the following parameters: TR FRET, 340ex/620 and 665em; 60 usec Delay; and 500 usec integration.
Instrumentation: CLARIOstar Plus (BMG LABTECH); Biomek FX for liquid handling (Beckman Coulter).

RS4-11 cells = assay: Cell viability assay (CellTiter-Glo), RS4-11; format: cell-based; conditions: Homo sapiens, RS4-11, 72 h, 3 days of incubation
Procedure, shortened: (§1)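 4000 cells/well in DMEM (HEK293, adhered overnight) or RPMI (RS4-11, MOLT-4) with 10% FBS; compounds added at 0.2% DMSO final. After 3 days, viability read by CellTiter-Glo luminescence.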

[1] = Cell viability assay (CellTiter-Glo), HEK293; format: cell-based; conditions: human, HEK293 cells, 3 days of incubation
Procedure, shortened: as §1

MOLT-4 cells = assay: Cell viability assay (CellTiter-Glo), MOLT-4; format: cell-based; conditions: Homo sapiens, 72 h, 3 days of incubation
Procedure, shortened: as §1

[2] = test system: caspase-3 and -7 activities in RS4-11 cells; assay: Caspase-3/7 activation (Caspase-Glo 3/7) in RS4-11 cells; format: cell-based; conditions: Homo sapiens, 3.5 h, read-out: Cas-3/7 EC50
Procedure, shortened: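 RS4-11 cells exposed to graded compound concentrations for 3.5 h at 37 °C, 5% CO2. Caspase-3/7 activity then read as luminescence after 30 min at rt with a DEVD-based luminogenic substrate reagent.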

| Structure (SMILES) | IC50 (BCL-2) [nM] | IC50 (BCL-xL) [nM] | IC50 (BCL-2 [G101V]) [nM] | CC50 (RS4-11 cells) [nM] | CC50 at 3 days [1] [nM] | CC50 (MOLT-4 cells) [nM] | EC50 [2] [nM] |
| --- | --- | --- | --- | --- | --- | --- | --- |
| COc1cccc(CN(C(=O)c2cc(-c3cc(Cl)ccc3C(=O)N3Cc4ccccc4C[C@H]3CN3CCOCC3)n3c2CCCC3)c2ccc(O)cc2)c1C [Compound 4, 3-[5-chloro-2-[(3S)-3-(morpholinomethyl)-3,4-dihydro-1H-isoquinoline-2-carbonyl]phenyl]-N-(4-hydroxyphenyl)-N-[(3-methoxy-2-methyl-phenyl)methyl]-5,6,7,8-tetrahydroindolizine-1-carboxamide] | ≤ 5 | > 5000 | 100 to 1000 | ≤ 100 | 10000 to 25000 | ≤ 5000 | ≤ 200 |
| Cc1c(C(=O)N(Cc2ccccc2C#N)c2ccc3[nH]ncc3c2)cc(-c2cc(Cl)ccc2C(=O)N2Cc3ccccc3C[C@H]2CN2CCOCC2)n1C [Compound 68, 5-[5-chloro-2-[(3S)-3-(morpholinomethyl)-3,4-dihydro-1H-isoquinoline-2-carbonyl]phenyl]-N-[(2-cyanophenyl)methyl]-N-(1H-indazol-5-yl)-1,2-dimethyl-pyrrole-3-carboxamide] | 10 to 50 | > 5000 | > 1000 | > 200 | > 25000 | > 10000 | > 500 |
| COc1cccc(CN(C(=O)c2cc(-c3cc(Cl)c(C#N)cc3C(=O)N3Cc4ccccc4C[C@H]3CN3CCOCC3)n(C)c2C)c2ccc(O)cc2)c1C [Compound 9, 5-[5-chloro-4-cyano-2-[(3S)-3-(morpholinomethyl)-3,4-dihydro-1H-isoquinoline-2-carbonyl]phenyl]-N-(4-hydroxyphenyl)-N-[(3-methoxy-2-methyl-phenyl)methyl]-1,2-dimethyl-pyrrole-3-carboxamide] | ≤ 5 | 2000 to 5000 | 100 to 1000 | > 200 | 10000 to 25000 | ≤ 5000 | > 500 |
| COc1cc(C(=O)N2Cc3ccccc3C[C@H]2CN2CCOCC2)c(-c2cc(C(=O)N(Cc3cccc(OC)c3C)c3ccc(O)cc3)c(C)n2C)cc1F [Compound 21, 5-[5-fluoro-4-methoxy-2-[(3S)-3-(morpholinomethyl)-3,4-dihydro-1H-isoquinoline-2-carbonyl]phenyl]-N-(4-hydroxyphenyl)-N-[(3-methoxy-2-methyl-phenyl)methyl]-1,2-dimethyl-pyrrole-3-carboxamide] | 10 to 50 | 2000 to 5000 | 100 to 1000 | 100 to 200 | > 25000 | ≤ 5000 | ≤ 200 |
| COc1cc(C(=O)N2Cc3ccccc3C[C@H]2CN2CCOCC2)c(-c2cc(C(=O)N(Cc3cccc(OC)c3C)c3ccc(O)cc3)c(C)n2C)cc1Cl [Compound 11, 5-[5-chloro-4-methoxy-2-[(3S)-3-(morpholinomethyl)-3,4-dihydro-1H-isoquinoline-2-carbonyl]phenyl]-N-(4-hydroxyphenyl)-N-[(3-methoxy-2-methyl-phenyl)methyl]-1,2-dimethyl-pyrrole-3-carboxamide] | 10 to 50 | 2000 to 5000 | 100 to 1000 | 100 to 200 | > 25000 | ≤ 5000 | ≤ 200 |
| COc1cccc(CN(C(=O)c2cc(-c3cc(F)c(F)cc3C(=O)N3Cc4ccccc4C[C@H]3CN3CCOCC3)n(C)c2C)c2ccc(O)cc2)c1C [Compound 51, 5-[4,5-difluoro-2-[(3S)-3-(morpholinomethyl)-3,4-dihydro-1H-isoquinoline-2-carbonyl]phenyl]-N-(4-hydroxyphenyl)-N-[(3-methoxy-2-methyl-phenyl)methyl]-1,2-dimethyl-pyrrole-3-carboxamide] | 10 to 50 | 2000 to 5000 | 100 to 1000 | 100 to 200 | > 25000 | ≤ 5000 | 200 to 500 |
